Assay results taken from US6156700A, “3-(1,2-Benzisothiazol- and isoxazol-5-yl)-2,4(1H,3H)-pyrimidinedione or thione and 3-(1,2-benzisothiazol- and isoxazol-5-yl)-4(3H)-pyrimidinone or thione herbicidal agents” (American Cyanmid Company, priority 1998, dated 2000).

Columns and labels:
Test in all cases: Preemergence herbicidal evaluation
ZEAMX = type: in vivo; set-up: scale not given here
Procedure: (§1) The preemergence and postemergence herbicidal properties of certain compounds of the present invention are compared with certain compounds disclosed in U.S. Pat. Nos. 5,484,763 and 5,523,278. The evaluations are performed as described in Examples 185 and 186. Data in Tables V and VI are reported by the compound number given in Example 185 for the compounds of this invention or by comparative compound letter for the compounds disclosed in U.S. Pat. Nos. 5,484,763 and 5,523,278.

TRZAWR = type: in vivo; set-up: scale not given here
Procedure: as §1

ECHCG = type: in vivo; set-up: scale not given here
Procedure: as §1

GALAP = type: in vivo; set-up: scale not given here
Procedure: as §1

ABUTH = type: in vivo; set-up: scale not given here
Procedure: as §1

CHEAL = type: in vivo; set-up: scale not given here
Procedure: as §1

GLXMAW = type: in vivo; set-up: scale not given here
Procedure: as §1

SETVI = type: in vivo; set-up: scale not given here
Procedure: as §1

AMBEL = type: in vivo; set-up: scale not given here
Procedure: as §1

CASOB = type: in vivo; set-up: scale not given here
Procedure: as §1

ORYSAT = type: in vivo, Oryza sativa; set-up: scale not given here
Procedure: as §1

IPOHE = type: in vivo
Procedure: as §1

Measured: herbicidal effect rating

CN(C)C(=O)c1nsc2ccc(-n3c(=O)cc(C(F)(F)F)n(C)c3=O)cc12 [Compound 329, 1,2-Benzisothiazole-3-carboxamide,5-[3,6-dihydro-3-methyl-2,6-dioxo-4-(trifluoromethyl)-1(2H)-pyrimidinyl]-N,N-dimethyl-]
8.5: CASOB; 0.2500 kg/ha
3.0: AMBEL; 0.0156-0.0160 kg/ha
4.5: ECHCG; 0.0620-0.0630 kg/ha
4.0: TRZAWR; 0.0620-0.0630 kg/ha | IPOHE; 0.0313-0.0320 kg/ha
2.5: ZEAMX; 0.0313-0.0320 kg/ha | SETVI; 0.0313-0.0320 kg/ha | ORYSAT; 0.0313-0.0320 kg/ha | IPOHE; 0.0156-0.0160 kg/ha
6.5: ZEAMX; 0.0620-0.0630 kg/ha | ORYSAT; 0.1250 kg/ha
7.0: ZEAMX; 0.1250 kg/ha | TRZAWR; 0.2500 kg/ha | ECHCG; 0.1250 kg/ha | AMBEL; 0.0313-0.0320 kg/ha | CASOB; 0.0620-0.0630 kg/ha
8.0: GLXMAW; 0.2500 kg/ha | AMBEL; 0.0620-0.0630 kg/ha | ORYSAT; 0.2500 kg/ha | IPOHE; 0.0620-0.0630 kg/ha
9.0: ECHCG; 0.2500 kg/ha | GALAP; 0.1250 kg/ha | GALAP; 0.2500 kg/ha | ABUTH; 0.0156-0.0160 kg/ha | ABUTH; 0.0313-0.0320 kg/ha | ABUTH; 0.0620-0.0630 kg/ha | ABUTH; 0.1250 kg/ha | ABUTH; 0.2500 kg/ha | CHEAL; 0.0156-0.0160 kg/ha | CHEAL; 0.0313-0.0320 kg/ha | CHEAL; 0.0620-0.0630 kg/ha | CHEAL; 0.1250 kg/ha | CHEAL; 0.2500 kg/ha | GLXMAW; 0.1250 kg/ha | SETVI; 0.0620-0.0630 kg/ha | SETVI; 0.1250 kg/ha | SETVI; 0.2500 kg/ha | AMBEL; 0.1250 kg/ha | AMBEL; 0.2500 kg/ha | CASOB; 0.1250 kg/ha | IPOHE; 0.1250 kg/ha | IPOHE; 0.2500 kg/ha
0.0: ECHCG; 0.0156-0.0160 kg/ha
6.0: TRZAWR; 0.1250 kg/ha | GALAP; 0.0620-0.0630 kg/ha | GLXMAW; 0.0313-0.0320 kg/ha
7.5: ZEAMX; 0.2500 kg/ha | GLXMAW; 0.0620-0.0630 kg/ha
5.0: GLXMAW; 0.0156-0.0160 kg/ha | ORYSAT; 0.0620-0.0630 kg/ha
1.0: TRZAWR; 0.0156-0.0160 kg/ha | ECHCG; 0.0313-0.0320 kg/ha | GALAP; 0.0156-0.0160 kg/ha | GALAP; 0.0313-0.0320 kg/ha
0.5: CASOB; 0.0156-0.0160 kg/ha
1.5: ZEAMX; 0.0156-0.0160 kg/ha | SETVI; 0.0156-0.0160 kg/ha | ORYSAT; 0.0156-0.0160 kg/ha
2.0: TRZAWR; 0.0313-0.0320 kg/ha | CASOB; 0.0313-0.0320 kg/ha
